Values joined by “and” are separate entries in the source; they are usually repeats but may differ in a detail not shown here. Equal entries are not always repeated. Inconclusive results and toxic doses are left out. Cut-off read from the data, not from the text of the source: active = T/C of 150% or more; inactive = T/C below 125%.
System: L1210 leukemia ip in BDF1 mice, survival T/C
Assay: NCI In Vivo Anticancer Drug Screen. Data for tumor model L1210 Leukemia (intraperitoneal) in B6D2F1 (BDF1) mice
Settings: endpoint: mean survival time, higher = longer survival
In short: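 Antitumor effect is assessed in tumor-bearing animals. Survival in the compound arm is compared with a vehicle-dosed control arm and expressed as their quotient.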

[1] = dose: 6.0 mg/kg/injection, schedule: Q01DX009 (ip), vehicle: Klucel (hydroxypropylcellulose) (HPC)
[2] = dose: 50.0 mg/kg/injection, schedule: Q01DX009 (ip), vehicle: Klucel (hydroxypropylcellulose) (HPC)
[3] = dose: 100.0 mg/kg/injection, schedule: Q01DX001 (ip), vehicle: Klucel (hydroxypropylcellulose) (HPC)
[4] = dose: 100.0 mg/kg/injection, schedule: Q01DX009 (ip), vehicle: Klucel (hydroxypropylcellulose) (HPC)
[5] = dose: 200.0 mg/kg/injection, schedule: Q01DX001 (ip), vehicle: Klucel (hydroxypropylcellulose) (HPC)
[6] = dose: 200.0 mg/kg/injection, schedule: Q01DX009 (ip), vehicle: Klucel (hydroxypropylcellulose) (HPC)
[7] = dose: 100.0 mg/kg/injection, schedule: Q04DX003 (ip), vehicle: Klucel (hydroxypropylcellulose) (HPC)
[8] = dose: 200.0 mg/kg/injection, schedule: Q04DX003 (ip), vehicle: Klucel (hydroxypropylcellulose) (HPC)
[9] = dose: 400.0 mg/kg/injection, schedule: Q01DX001 (ip), vehicle: Klucel (hydroxypropylcellulose) (HPC)
[10] = dose: 400.0 mg/kg/injection, schedule: Q01DX009 (ip), vehicle: Klucel (hydroxypropylcellulose) (HPC)
[11] = dose: 100.0 mg/kg/injection, schedule: Q01DX001 (ip), vehicle: saline
[12] = dose: 100.0 mg/kg/injection, schedule: Q01DX009 (ip), vehicle: saline
[13] = dose: 200.0 mg/kg/injection, schedule: Q01DX001 (ip), vehicle: saline
[14] = dose: 200.0 mg/kg/injection, schedule: Q01DX009 (ip), vehicle: saline
[15] = dose: 400.0 mg/kg/injection, schedule: Q01DX001 (ip), vehicle: saline
[16] = dose: 100.0 mg/kg/injection, schedule: Q01DX001 (ip), vehicle: carboxymethylcellulose (CMC)
[17] = dose: 200.0 mg/kg/injection, schedule: Q01DX001 (ip), vehicle: carboxymethylcellulose (CMC)
[18] = dose: 400.0 mg/kg/injection, schedule: Q01DX001 (ip), vehicle: carboxymethylcellulose (CMC)
[19] = dose: 200.0 mg/kg/injection, schedule: Q04DX003 (ip), vehicle: saline with Tween-80
[20] = dose: 100.0 mg/kg/injection, schedule: Q04DX003 (ip), vehicle: saline with Tween-80
[21] = dose: 400.0 mg/kg/injection, schedule: Q04DX003 (ip), vehicle: saline with Tween-80
[22] = dose: 400.0 mg/kg/injection, schedule: Q04DX003 (ip), vehicle: Klucel (hydroxypropylcellulose) (HPC)

Measured: T/C

C=CC[S][Pb]([c]1ccccc1)([c]1ccccc1)[c]1ccccc1
inactive: dose: 3.0 mg/kg/injection, schedule: Q01DX009 (ip), vehicle: Klucel (hydroxypropylcellulose) (HPC) 106 % of control | [1] 90 % of control | dose: 12.5 mg/kg/injection, schedule: Q04DX002 (ip), vehicle: Klucel (hydroxypropylcellulose) (HPC) 103 % of control | dose: 25.0 mg/kg/injection, schedule: Q04DX002 (ip), vehicle: Klucel (hydroxypropylcellulose) (HPC) 91 % of control

Cc1ccc(C(=O)O)cc1-n1c(-c2ccc(Cl)cc2)nnc1-c1ccc(Br)cc1
inactive: [2] 92 % of control | [3] 97 % of control | [4] 93 % of control | [5] 96 % of control | [6] 93 % of control

N#CCc1nc2ccccc2[nH]1
inactive: [2] 97 % of control | dose: 50.0 mg/kg/injection, schedule: Q04DX003 (ip), vehicle: Klucel (hydroxypropylcellulose) (HPC) 101 % of control | [3] 102 % of control | [4] 98 % of control | [7] 98 % of control | [6] 88 % of control | [8] 101 % of control

Cc1ccc(C(=O)C(Br)C(Br)c2ccc(C)cc2)cc1 (stereo not given)
inactive: [3] 105 % of control | [4] 96 % of control | [5] 99 % of control | [6] 91 % of control | [9] 94 % of control | [10] 95 % of control

CCC1(C)NC(=O)NC1=O (stereo not given)
inactive: dose: 50.0 mg/kg/injection, schedule: Q01DX009 (ip), vehicle: saline 100 % of control | [11] 112 % of control | [12] 98 % of control | dose: 100.0 mg/kg/injection, schedule: Q04DX003 (ip), vehicle: saline 106 % of control | [13] 102 % of control | [14] 111 % of control | dose: 200.0 mg/kg/injection, schedule: Q04DX003 (ip), vehicle: saline 101 % of control | [15] 100 % of control | dose: 400.0 mg/kg/injection, schedule: Q01DX009 (ip), vehicle: saline 109 % of control | dose: 400.0 mg/kg/injection, schedule: Q04DX003 (ip), vehicle: saline 101 % of control

Cn1c(=O)c2[nH]c(CCC3CCCC3)nc2n(C)c1=O
inactive: dose: 50.0 mg/kg/injection, schedule: Q01DX001 (ip), vehicle: saline 98 % of control | [11] 96 % of control | [13] 96 % of control | [15] 101 % of control

NCc1ccc(Cl)cc1Cl
inactive: [12] 103 % of control | [14] 108 % of control

CCCCCN(CCCCC)C(=O)CCCC
inactive: [16] 115 % of control | dose: 100.0 mg/kg/injection, schedule: Q01DX009 (ip), vehicle: carboxymethylcellulose (CMC) 93 % of control and 97 % of control | dose: 100.0 mg/kg/injection, schedule: Q04DX002 (ip), vehicle: carboxymethylcellulose (CMC) 101 % of control and 105 % of control | dose: 100.0 mg/kg/injection, schedule: Q04DX003 (ip), vehicle: carboxymethylcellulose (CMC) 97 % of control | [17] 101 % of control | dose: 200.0 mg/kg/injection, schedule: Q01DX009 (ip), vehicle: carboxymethylcellulose (CMC) 100 % of control and 102 % of control | dose: 200.0 mg/kg/injection, schedule: Q04DX002 (ip), vehicle: carboxymethylcellulose (CMC) 98 % of control and 103 % of control | dose: 200.0 mg/kg/injection, schedule: Q04DX003 (ip), vehicle: carboxymethylcellulose (CMC) 95 % of control | [18] 100 % of control | dose: 400.0 mg/kg/injection, schedule: Q01DX009 (ip), vehicle: carboxymethylcellulose (CMC) 97 % of control and 86 % of control | dose: 400.0 mg/kg/injection, schedule: Q04DX002 (ip), vehicle: carboxymethylcellulose (CMC) 98 % of control and 87 % of control | dose: 400.0 mg/kg/injection, schedule: Q04DX003 (ip), vehicle: carboxymethylcellulose (CMC) 100 % of control

CCCCCCC1CCC(CCCCCCCC(=O)N2CCN(C)CC2)C(C/C=C/CCCCCCCC(=O)N2CCN(C)CC2)C1CCCCC (stereo not given)
inactive: dose: 75.0 mg/kg/injection, schedule: Q01DX001 (ip), vehicle: saline 94 % of control | dose: 150.0 mg/kg/injection, schedule: Q01DX001 (ip), vehicle: saline 103 % of control | dose: 300.0 mg/kg/injection, schedule: Q01DX001 (ip), vehicle: saline 95 % of control

CC[NH-].CC[NH-].[Cl][Pt+2][Cl]
inactive: dose: 0.75 mg/kg/injection, schedule: Q01DX009 (ip), vehicle: other 106 % of control | dose: 1.5 mg/kg/injection, schedule: Q01DX001 (ip), vehicle: other 101 % of control | dose: 1.5 mg/kg/injection, schedule: Q01DX009 (ip), vehicle: other 118 % of control | dose: 2.6 mg/kg/injection, schedule: Q01DX009 (ip), vehicle: Klucel (hydroxypropylcellulose) (HPC) 108 % of control and 114 % of control | dose: 3.0 mg/kg/injection, schedule: Q01DX001 (ip), vehicle: other 106 % of control | dose: 3.0 mg/kg/injection, schedule: Q01DX009 (ip), vehicle: other 124 % of control | dose: 4.0 mg/kg/injection, schedule: Q01DX009 (ip), vehicle: Klucel (hydroxypropylcellulose) (HPC) 108 % of control and 119 % of control | dose: 5.0 mg/kg/injection, schedule: Q04DX003 (ip), vehicle: Klucel (hydroxypropylcellulose) (HPC) 107 % of control | [1] 115 % of control and 119 % of control | dose: 8.0 mg/kg/injection, schedule: Q04DX003 (ip), vehicle: Klucel (hydroxypropylcellulose) (HPC) 110 % of control | dose: 9.0 mg/kg/injection, schedule: Q01DX009 (ip), vehicle: Klucel (hydroxypropylcellulose) (HPC) 107 % of control | dose: 12.0 mg/kg/injection, schedule: Q01DX001 (ip), vehicle: other 121 % of control | dose: 12.5 mg/kg/injection, schedule: Q01DX009 (ip), vehicle: Klucel (hydroxypropylcellulose) (HPC) 119 % of control | dose: 18.0 mg/kg/injection, schedule: Q04DX003 (ip), vehicle: Klucel (hydroxypropylcellulose) (HPC) 117 % of control | dose: 25.0 mg/kg/injection, schedule: Q04DX003 (ip), vehicle: Klucel (hydroxypropylcellulose) (HPC) 90 % of control

COc1ccc2c(c1)CNC1c3cc(OC)c(O)cc3CC21 (stereo not given)
inactive: [19] 88 % of control

O=C(O)CCC(NC(=O)c1ccccc1C(=O)O)C(=O)O (stereo not given)
inactive: [16] 94 % of control | [17] 94 % of control | [18] 90 % of control

O=c1c(C(Cl)Cl)nc2ccccc2n1O
inactive: [3] 95 % of control | [5] 98 % of control | [9] 101 % of control

CCOC(=O)CCN(CCC(=O)OCC)C(C)C
inactive: dose: 100.0 mg/kg/injection, schedule: Q01DX009 (ip), vehicle: saline with Tween-80 100 % of control | [20] 101 % of control | dose: 200.0 mg/kg/injection, schedule: Q01DX009 (ip), vehicle: saline with Tween-80 90 % of control | [19] 101 % of control | dose: 400.0 mg/kg/injection, schedule: Q01DX009 (ip), vehicle: saline with Tween-80 98 % of control | [21] 101 % of control

S=P(=Nc1ccccc1)c1ccccc1 (stereo not given)
inactive: [3] 91 % of control | [5] 89 % of control | [9] 88 % of control

C1CCC2C(C1)CCCC2C1C2C3CCCCC3CCC2C2CCC3CCCCC3C21 (stereo not given)
inactive: [20] 91 % of control | [19] 91 % of control | [21] 88 % of control

COC(=O)NS(=O)(=O)c1cccn1C
inactive: [3] 106 % of control | [7] 106 % of control | [5] 104 % of control | [8] 100 % of control | [9] 104 % of control | [22] 95 % of control

Clc1ccc(CI)cc1
inactive: dose: 25.0 mg/kg/injection, schedule: Q04DX003 (ip), vehicle: alcohol 106 % of control | dose: 50.0 mg/kg/injection, schedule: Q04DX003 (ip), vehicle: alcohol 98 % of control | dose: 100.0 mg/kg/injection, schedule: Q04DX003 (ip), vehicle: alcohol 98 % of control

COC(=O)/C=C/N1C(=O)c2ccccc2C1=O
inactive: [4] 96 % of control | [7] 102 % of control | [6] 98 % of control | [8] 92 % of control | [10] 98 % of control | [22] 96 % of control

O=C(O)CNS(=O)(=O)CCN1C(=O)c2ccccc2C1=O
inactive: [7] 96 % of control | [8] 92 % of control | [22] 96 % of control

Reference: PubChem BioAssay AID248 (DTP/NCI, 2004)
